The values below come from US20150197497A1, “SELECTIVE INHIBITORS OF HISTONE DEACETYLASE ISOFORM 6 AND METHODS THEREOF” (DANA-FARBER CANCER INSTITUTE, INC., priority 2011, published 2015).

Test [1] concerns the target T1, HDAC2 (Homo sapiens, UniProt Q92769).
T1 construct: Recombinant, full-length HDAC protein (BPS Biosciences) was incubated with fluorophore conjugated substrate; purchased BPS Biosciences
Put plainly: In vitro HDAC enzyme inhibition assay, HDAC2. It counts as biochemical. Particulars: for HDAC2/HDAC6 in vitro selectivity: ratio of IC50 for HDAC2 relative to that of HDAC6; for IC50: recombinant full-length HDAC2, substrate MAZ1600 22 μM. Here is the method: (§1) In vitro Histone Deacetylase enzyme assays were performed using Class I (isoforms: HDAC1, HDAC2, HDAC3 and HDAC8), class IIa (isoforms: HDAC4, HDAC5, HDAC7 and HDAC9) and class IIb (isoform HDAC6).
(§2) HDAC activities were determined in vitro with an optimized homogenous assay performed in a 384-well plate. Recombinant, full-length HDAC protein (BPS Biosciences) was incubated with fluorophore conjugated substrate, MAZ1600 and MAZ1675, at Km=[S]. […] Reactions were performed in assay buffer (50 mM HEPES, 100 mM KCl, 0.001% Tween-20, 0.05% BSA, 200 μM tris(2-carboxyethyl)phosphine (TCEP), pH 7.4) and followed for fluorogenic release of 7-amino-4-methylcoumarin from substrate upon deacetylase and trypsin enzymatic activity. Fluorescence measurements were obtained every five minutes using a multilabel plate reader and plate-stacker (Envision; Perkin-Elmer). Each plate was analyzed by plate repeat, and the first derivative within the linear range was imported into analytical software (Spotfire DecisionSite and GraphPad Prism). Replicate experimental data from incubations with inhibitor were normalized to controls.

For test [2], the system named is acetylated histones. Put plainly: High-content image analysis of induction of acetylated histones in A549 cells. Particulars: Homo sapiens, A549, 8 h, read-out: EC50 for half-maximal induction of acetylated histones (AcHistone).
Experimental: Cells were treated with each test HDACi compound with an automated pin transfer instrument (Janus, Perkin Elmer) and incubated for 8 hours. […] Fixation solution was aspirated and 90 μL of washing solution (0.1% Triton X-100 in PBS) was added prior to 10 minute incubation at 4° C. Washing solution was aspirated and cells were incubated at 4° C. for about 1 hour in blocking solution (0.1% Triton X-100+2% BSA in PBS). Washing solution was aspirated, and cells were incubated for about 1 hour at 4° C. in primary antibody for acetylated-tubulin (Sigma T7451) and acetylated-histone (Cell Signaling #9441L) at a 1:1000 dilution in blocking solution. Primary antibody solution was aspirated, and cells were washed three times in 90 μL of washing solution. […] Secondary antibody and nuclear staining solution was aspirated and cells were washed three times in 90 μL of washing solution. After the third wash, 50 μL of PBS was added to each well. Image acquisition was done on a high content imaging microscope (ImageXpress Micro, Molecular Devices), and image analysis (MetaXpress, Molecular Devices) was performed to obtain average acetylated-tubulin and acetylated-histone signal per cell based on treatment. Replicate experimental data from incubations with inhibitor were normalized to DMSO controls.
In test [3] the target is T2, HDAC9 (Homo sapiens, UniProt Q9UKV0).
T2 construct: Recombinant, full-length HDAC protein (BPS Biosciences) was incubated with fluorophore conjugated substrate; purchased BPS Biosciences
Put plainly: In vitro HDAC enzyme inhibition assay, HDAC9. It counts as biochemical. Particulars: for HDAC9/HDAC6 in vitro selectivity: ratio of IC50 for HDAC9 relative to that of HDAC6; for IC50: recombinant full-length HDAC9, substrate MAZ1675 26 μM; for selectivity toward HDAC6 compared to HDAC9 (in words): tested in vitro. As to the method: as §1, §2

In test [4] the target is T3, HDAC8 (Homo sapiens, UniProt Q9BY41).
T3 construct: Recombinant, full-length HDAC protein (BPS Biosciences) was incubated with fluorophore conjugated substrate; purchased BPS Biosciences
T3 sequence (Q9BY41 1-377): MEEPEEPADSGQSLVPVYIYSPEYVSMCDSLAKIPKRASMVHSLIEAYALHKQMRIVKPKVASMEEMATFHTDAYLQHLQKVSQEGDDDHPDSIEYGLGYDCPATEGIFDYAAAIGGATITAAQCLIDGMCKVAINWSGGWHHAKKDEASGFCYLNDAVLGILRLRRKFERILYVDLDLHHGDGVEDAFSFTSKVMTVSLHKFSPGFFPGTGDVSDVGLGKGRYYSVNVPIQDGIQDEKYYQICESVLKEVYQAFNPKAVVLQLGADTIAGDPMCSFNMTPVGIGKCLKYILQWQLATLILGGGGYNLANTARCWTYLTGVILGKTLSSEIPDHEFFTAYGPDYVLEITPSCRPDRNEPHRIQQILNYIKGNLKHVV
Nature of the test: In vitro HDAC enzyme inhibition assay, HDAC8. It counts as biochemical. To be noted: for HDAC8/HDAC6 in vitro selectivity: ratio of IC50 for HDAC8 relative to that of HDAC6; for IC50: recombinant full-length HDAC8, substrate MAZ1675 282 μM; for selectivity toward HDAC6 compared to HDAC8 (in words): tested in vitro. As to the method: as §1, §2

The target in test [5] is T4, HDAC1 (Homo sapiens, UniProt Q13547).
T4 construct: Recombinant, full-length HDAC protein (BPS Biosciences) was incubated with fluorophore conjugated substrate; purchased BPS Biosciences
Put plainly: In vitro HDAC enzyme inhibition assay, HDAC1. It counts as biochemical. Particulars: for HDAC1/HDAC6 in vitro selectivity: ratio of IC50 for HDAC1 relative to that of HDAC6; for IC50: recombinant full-length HDAC1, substrate MAZ1600 21 μM. As to the method: as §1, §2

Test [6] has as its target T5, HDAC5 (Homo sapiens, UniProt Q9UQL6).
T5 construct: Recombinant, full-length HDAC protein (BPS Biosciences) was incubated with fluorophore conjugated substrate; purchased BPS Biosciences
Put plainly: In vitro HDAC enzyme inhibition assay, HDAC5. In kind it is biochemical. Particulars: for HDAC5/HDAC6 in vitro selectivity: ratio of IC50 for HDAC5 relative to that of HDAC6; for IC50: recombinant full-length HDAC5, substrate MAZ1675 40 μM; for selectivity toward HDAC6 compared to HDAC5 (in words): tested in vitro. As to the method:
as §1, §2

T5 sequence (Q9UQL6 whole entry): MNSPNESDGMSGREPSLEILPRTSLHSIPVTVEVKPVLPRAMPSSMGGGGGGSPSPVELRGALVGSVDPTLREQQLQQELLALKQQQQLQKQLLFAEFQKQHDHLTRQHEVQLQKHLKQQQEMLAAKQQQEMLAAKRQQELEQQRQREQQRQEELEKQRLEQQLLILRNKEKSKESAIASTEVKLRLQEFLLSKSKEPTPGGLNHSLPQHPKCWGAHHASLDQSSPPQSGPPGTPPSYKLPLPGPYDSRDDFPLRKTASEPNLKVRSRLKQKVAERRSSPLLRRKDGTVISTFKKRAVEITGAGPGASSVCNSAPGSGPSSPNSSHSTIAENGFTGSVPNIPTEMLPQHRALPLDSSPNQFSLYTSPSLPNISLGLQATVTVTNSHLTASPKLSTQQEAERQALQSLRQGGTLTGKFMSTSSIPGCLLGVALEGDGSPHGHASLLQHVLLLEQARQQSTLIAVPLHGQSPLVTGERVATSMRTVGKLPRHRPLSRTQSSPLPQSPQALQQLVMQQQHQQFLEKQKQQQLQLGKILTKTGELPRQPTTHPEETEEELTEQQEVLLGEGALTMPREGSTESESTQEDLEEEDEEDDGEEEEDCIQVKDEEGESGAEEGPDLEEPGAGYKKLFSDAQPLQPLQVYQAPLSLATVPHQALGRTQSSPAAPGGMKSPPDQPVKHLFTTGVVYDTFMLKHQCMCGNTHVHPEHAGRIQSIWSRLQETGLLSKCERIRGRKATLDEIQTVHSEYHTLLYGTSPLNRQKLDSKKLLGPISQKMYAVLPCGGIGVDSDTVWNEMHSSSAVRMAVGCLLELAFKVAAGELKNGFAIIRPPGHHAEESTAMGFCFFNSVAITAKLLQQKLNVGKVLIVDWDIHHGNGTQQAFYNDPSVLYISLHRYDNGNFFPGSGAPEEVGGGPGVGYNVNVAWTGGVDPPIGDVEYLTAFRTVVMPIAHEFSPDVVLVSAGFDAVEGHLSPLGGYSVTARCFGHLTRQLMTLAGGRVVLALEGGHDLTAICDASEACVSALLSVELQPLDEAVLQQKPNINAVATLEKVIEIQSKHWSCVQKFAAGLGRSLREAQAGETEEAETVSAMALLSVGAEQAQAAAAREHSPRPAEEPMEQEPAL
T1 sequence (Q92769 whole entry): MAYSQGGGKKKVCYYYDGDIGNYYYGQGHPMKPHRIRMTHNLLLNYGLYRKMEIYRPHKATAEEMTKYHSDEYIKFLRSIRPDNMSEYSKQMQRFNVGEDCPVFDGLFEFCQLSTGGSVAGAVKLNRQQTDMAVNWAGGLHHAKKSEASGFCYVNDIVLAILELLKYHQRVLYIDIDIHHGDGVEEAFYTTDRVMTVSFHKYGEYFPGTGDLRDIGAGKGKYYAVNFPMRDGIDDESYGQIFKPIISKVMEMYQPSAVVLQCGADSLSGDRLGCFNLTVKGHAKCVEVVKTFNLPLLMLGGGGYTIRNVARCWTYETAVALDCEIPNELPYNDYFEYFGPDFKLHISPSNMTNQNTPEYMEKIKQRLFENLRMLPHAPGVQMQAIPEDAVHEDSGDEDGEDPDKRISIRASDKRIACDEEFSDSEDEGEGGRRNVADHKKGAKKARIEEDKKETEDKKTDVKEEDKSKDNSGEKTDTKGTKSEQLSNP
T2 sequence (Q9UKV0 whole entry): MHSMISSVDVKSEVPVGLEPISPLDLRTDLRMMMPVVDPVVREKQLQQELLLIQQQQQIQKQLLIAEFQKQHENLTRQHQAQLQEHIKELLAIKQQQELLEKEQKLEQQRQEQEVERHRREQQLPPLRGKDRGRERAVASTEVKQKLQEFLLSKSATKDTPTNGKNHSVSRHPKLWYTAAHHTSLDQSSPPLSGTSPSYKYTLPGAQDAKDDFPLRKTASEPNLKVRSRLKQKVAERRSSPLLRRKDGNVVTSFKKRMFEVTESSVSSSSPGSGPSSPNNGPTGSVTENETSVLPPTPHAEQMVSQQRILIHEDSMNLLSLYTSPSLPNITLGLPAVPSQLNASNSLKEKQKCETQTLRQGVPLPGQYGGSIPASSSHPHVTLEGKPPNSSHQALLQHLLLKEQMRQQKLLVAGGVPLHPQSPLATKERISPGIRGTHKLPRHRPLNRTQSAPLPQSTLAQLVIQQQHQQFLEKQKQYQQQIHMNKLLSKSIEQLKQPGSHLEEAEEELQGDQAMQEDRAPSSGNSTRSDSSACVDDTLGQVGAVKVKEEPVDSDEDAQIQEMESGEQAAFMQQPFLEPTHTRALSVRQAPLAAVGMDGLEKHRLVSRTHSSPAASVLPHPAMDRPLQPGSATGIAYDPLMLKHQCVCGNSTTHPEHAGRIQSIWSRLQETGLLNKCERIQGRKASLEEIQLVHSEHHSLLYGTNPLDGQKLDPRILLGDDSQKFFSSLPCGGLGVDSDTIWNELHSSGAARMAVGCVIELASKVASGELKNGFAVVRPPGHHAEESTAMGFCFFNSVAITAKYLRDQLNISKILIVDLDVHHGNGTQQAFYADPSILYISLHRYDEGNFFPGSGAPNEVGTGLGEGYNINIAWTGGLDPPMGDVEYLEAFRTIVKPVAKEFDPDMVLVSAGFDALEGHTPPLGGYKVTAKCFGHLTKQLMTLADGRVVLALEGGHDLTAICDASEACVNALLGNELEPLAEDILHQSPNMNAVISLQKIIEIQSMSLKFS
T4 sequence (Q13547 whole entry): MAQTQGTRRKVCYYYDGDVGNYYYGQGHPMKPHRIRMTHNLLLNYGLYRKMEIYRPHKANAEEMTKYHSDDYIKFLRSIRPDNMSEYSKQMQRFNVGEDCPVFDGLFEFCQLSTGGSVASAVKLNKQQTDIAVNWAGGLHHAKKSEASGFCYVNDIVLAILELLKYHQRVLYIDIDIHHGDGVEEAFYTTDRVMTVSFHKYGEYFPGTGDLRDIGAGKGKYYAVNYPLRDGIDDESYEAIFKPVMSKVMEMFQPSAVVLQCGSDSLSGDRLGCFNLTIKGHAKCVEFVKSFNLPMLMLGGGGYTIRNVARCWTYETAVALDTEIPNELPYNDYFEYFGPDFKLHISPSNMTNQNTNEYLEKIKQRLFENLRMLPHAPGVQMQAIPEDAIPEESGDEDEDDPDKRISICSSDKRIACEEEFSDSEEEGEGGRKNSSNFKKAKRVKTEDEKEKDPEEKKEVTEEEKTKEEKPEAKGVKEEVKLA

As for `O=C(NO)c1ccc(Cn2cnc3cc(Br)ccc32)cc1` [A11, 4-((5-bromo-1H-benzo[d]imidazol-1-yl)methyl)-N-hydroxybenzamide], in test [1], the “HDAC2/HDAC6 in vitro selectivity” value came to 1601 and the half-maximal inhibitory concentration (IC50) amounted to 26.7 nM. In addition, the EC50 in test [2] stood at 1970 nM. Also, in test [3], the “HDAC9/HDAC6 in vitro selectivity” value is given as 61100, the IC50 worked out at 1020 nM and the “selectivity toward HDAC6 compared to HDAC9 (in words)” value was “exceptionally high selectivity (Inhibitors with in vitro selectivity values for HDAC6 of at least 30,000 are considered to have exceptionally high selectivity toward HDAC6)”. In addition, in test [4], the “HDAC8/HDAC6 in vitro selectivity” value was 18285 and the half-inhibitory concentration (IC50) is 305 nM. Besides, in test [5], the “HDAC1/HDAC6 in vitro selectivity” value was 1725 and the half-inhibitory concentration (IC50) was 28.7 nM. Further, in test [6], the “HDAC5/HDAC6 in vitro selectivity” value is reported as 25649 and the concentration for half-maximal inhibition (IC50) is 427 nM.
On to `COc1ccc2c(c1)ncn2Cc1ccc(C(=O)NO)cc1` [A12, N-hydroxy-4-((5-methoxy-1H-benzo[d]imidazol-1-yl)methyl)benzamide], for which, in test [1], the “HDAC2/HDAC6 in vitro selectivity” value was 1125 and the 50% inhibitory concentration (IC50) worked out at 244 nM. In addition, in test [2], the half-maximal effective concentration (EC50) turned out to be 105 nM. For the same compound, in test [3], the “HDAC9/HDAC6 in vitro selectivity” value is 10933 and the IC50 stood at 2370 nM. In test [4], the “HDAC8/HDAC6 in vitro selectivity” value was found to be 6543 and the IC50 came out at 1420 nM. Besides, in test [5], the “HDAC1/HDAC6 in vitro selectivity” value was 1378 and the IC50 came out at 299 nM. For the same compound, in test [6], the “HDAC5/HDAC6 in vitro selectivity” value came out at 7819 and the half-inhibitory concentration (IC50) worked out at 1700 nM.
`O=C(NO)c1ccc(Cn2c(=O)[nH]c3ccccc32)cc1` [B1, N-hydroxy-4-((2-oxo-2,3-dihydro-1H-benzo[d]imidazol-1-yl)methyl)benzamide]: in test [1], the “HDAC2/HDAC6 in vitro selectivity” value amounted to 6974 and the half-maximal inhibitory concentration (IC50) turned out to be 101 nM. Also, the EC50 in test [2] turned out to be 263 nM. In test [3], the “HDAC9/HDAC6 in vitro selectivity” value is given as 155186, the IC50 was found to be 2250 nM and the “selectivity toward HDAC6 compared to HDAC9 (in words)” value is “exceptionally high selectivity (Inhibitors with in vitro selectivity values for HDAC6 of at least 30,000 are considered to have exceptionally high selectivity toward HDAC6)”. Further, in test [4], the “HDAC8/HDAC6 in vitro selectivity” value worked out at 46328, the IC50 turned out to be 673 nM and the “selectivity toward HDAC6 compared to HDAC8 (in words)” value is reported as “exceptionally high selectivity (Inhibitors with in vitro selectivity values for HDAC6 of at least 30,000 are considered to have exceptionally high selectivity toward HDAC6)”. In test [5], the “HDAC1/HDAC6 in vitro selectivity” value is reported as 9665 and the IC50 turned out to be 140 nM. Further, in test [6], the “HDAC5/HDAC6 in vitro selectivity” value is 117927, the concentration for half-maximal inhibition (IC50) came out at 1710 nM and the “selectivity toward HDAC6 compared to HDAC5 (in words)” value was “exceptionally high selectivity (Inhibitors with in vitro selectivity values for HDAC6 of at least 30,000 are considered to have exceptionally high selectivity toward HDAC6)”.
With `Cc1ccc2c(c1)[nH]c(=O)n2Cc1ccc(C(=O)NO)cc1` [B2, N-hydroxy-4-((5-methyl-2-oxo-2,3-dihydro-1H-benzo[d]imidazol-1-yl)methyl)benzamide], in test [1], the “HDAC2/HDAC6 in vitro selectivity” value is reported as 4997 and the 50% inhibitory concentration (IC50) worked out at 14.3 nM. For the same compound, the EC50 in test [2] is 229 nM. Moreover, in test [3], the “HDAC9/HDAC6 in vitro selectivity” value was 319552, the concentration for half-maximal inhibition (IC50) came to 915 nM and the “selectivity toward HDAC6 compared to HDAC9 (in words)” value is “exceptionally high selectivity (Inhibitors with in vitro selectivity values for HDAC6 of at least 30,000 are considered to have exceptionally high selectivity toward HDAC6)”. For the same compound, in test [4], the “HDAC8/HDAC6 in vitro selectivity” value was found to be 120780, the IC50 came out at 346 nM and the “selectivity toward HDAC6 compared to HDAC8 (in words)” value is reported as “exceptionally high selectivity (Inhibitors with in vitro selectivity values for HDAC6 of at least 30,000 are considered to have exceptionally high selectivity toward HDAC6)”. Besides, in test [5], the “HDAC1/HDAC6 in vitro selectivity” value is recorded as 4622 and the IC50 was 13.2 nM. Also, in test [6], the “HDAC5/HDAC6 in vitro selectivity” value is on record as 229909, the half-inhibitory concentration (IC50) was determined as 658 nM and the “selectivity toward HDAC6 compared to HDAC5 (in words)” value is given as “exceptionally high selectivity (Inhibitors with in vitro selectivity values for HDAC6 of at least 30,000 are considered to have exceptionally high selectivity toward HDAC6)”.
Take `O=C(NO)c1ccc(Cn2c(=O)[nH]c3cc(F)ccc32)cc1` [B3, 4-((5-fluoro-2-oxo-2,3-dihydro-1H-benzo[d]imidazol-1-yl)methyl)N-hydroxybenzamide]: in test [1], the “HDAC2/HDAC6 in vitro selectivity” value is listed as 3002 and the IC50 came to 64.7 nM. Also, the concentration for a half-maximal effect (EC50) in test [2] came to 1480 nM. In addition, in test [3], the “HDAC9/HDAC6 in vitro selectivity” value was 66950, the IC50 was 1440 nM and the “selectivity toward HDAC6 compared to HDAC9 (in words)” value was “exceptionally high selectivity (Inhibitors with in vitro selectivity values for HDAC6 of at least 30,000 are considered to have exceptionally high selectivity toward HDAC6)”. In test [4], the “HDAC8/HDAC6 in vitro selectivity” value came to 12899 and the IC50 was determined as 278 nM. For the same compound, in test [5], the “HDAC1/HDAC6 in vitro selectivity” value was 2749 and the IC50 worked out at 59.3 nM. For the same compound, in test [6], the “HDAC5/HDAC6 in vitro selectivity” value amounted to 51438, the IC50 is 1110 nM and the “selectivity toward HDAC6 compared to HDAC5 (in words)” value was “exceptionally high selectivity (Inhibitors with in vitro selectivity values for HDAC6 of at least 30,000 are considered to have exceptionally high selectivity toward HDAC6)”.
As for `O=C(NO)c1ccc(Cn2c(=O)[nH]c3cc(Cl)ccc32)cc1` [B4, 4-((5-chloro-2-oxo-2,3-dihydro-1H-benzo[d]imidazol-1-yl)methyl)-N-hydroxybenzamide], in test [1], the “HDAC2/HDAC6 in vitro selectivity” value stood at 210 and the IC50 was 5.3 nM. Moreover, in test [2], the EC50 worked out at 420 nM. In test [3], the “HDAC9/HDAC6 in vitro selectivity” value was 16475 and the IC50 was found to be 416 nM. Moreover, in test [4], the “HDAC8/HDAC6 in vitro selectivity” value was 6673 and the half-maximal inhibitory concentration (IC50) was found to be 169 nM. In test [5], the “HDAC1/HDAC6 in vitro selectivity” value is 209 and the half-maximal inhibitory concentration (IC50) stood at 5.29 nM. Further, in test [6], the “HDAC5/HDAC6 in vitro selectivity” value was 22793 and the IC50 is 576 nM.
In the case of `O=C(NO)c1ccc(Cn2c(=O)[nH]c3cc(Br)ccc32)cc1` [B5, 4-((5-bromo-2-oxo-2,3-dihydro-1H-benzo[d]imidazol-1-yl)methyl)-N-hydroxybenzamide], in test [1], the “HDAC2/HDAC6 in vitro selectivity” value turned out to be 444 and the 50% inhibitory concentration (IC50) amounted to 9.09 nM. In test [2], the half-maximal effective concentration (EC50) stood at 846 nM. Further, in test [3], the “HDAC9/HDAC6 in vitro selectivity” value is recorded as 39480, the half-inhibitory concentration (IC50) turned out to be 809 nM and the “selectivity toward HDAC6 compared to HDAC9 (in words)” value is recorded as “exceptionally high selectivity (Inhibitors with in vitro selectivity values for HDAC6 of at least 30,000 are considered to have exceptionally high selectivity toward HDAC6)”. Also, in test [4], the “HDAC8/HDAC6 in vitro selectivity” value was determined as 12655 and the IC50 turned out to be 259 nM. Also, in test [5], the “HDAC1/HDAC6 in vitro selectivity” value is 508 and the half-maximal inhibitory concentration (IC50) was 10.4 nM. For the same compound, in test [6], the “HDAC5/HDAC6 in vitro selectivity” value is reported as 39409, the IC50 came out at 808 nM and the “selectivity toward HDAC6 compared to HDAC5 (in words)” value was “exceptionally high selectivity (Inhibitors with in vitro selectivity values for HDAC6 of at least 30,000 are considered to have exceptionally high selectivity toward HDAC6)”.
